Test results published in patent US20180125993A1 (BEIJING COTIMES BIOTECH COMPANY LIMITED, priority 2014, published 2018).
Marks after values point to notes of the source that are not given here.

Legend:
colon cancer, CS146, 2# = assay: Patients primary tumor tissue subcutaneous model (Day 30 after treatment); type: in vivo, nude mice; conditions: HuCTB006 10 mg/kg i.v. QW × 6w alone
Excerpt: (§1) Fresh primary tumor tissues from patients were implanted in NOD/SCID mice's flank, which developed into a primary tumor, which was then transferred to the nude mice's flank to allow the tumor reaching an exponential growth phase, and the tumor was named 1# tumor, and so on. When the tumor volume and number reached passage requirements, they were implanted into the right flank of nude mice. When the tumors' average volumes reached 100-200 mm^3, the mice were grouped.
(§2) The bodyweight and major/minor axis of mice were measured twice a week, and Tumor Growth Inhibition (TGI) and tumor volume were calculated same as in 5.1.5. In addition, to evaluate the synergetic effect of drug combination in tumor growth, Jin Zhengjun Q value judgment method was used with the follow formula: Q=Ea+b/(Ea+Eb−Ea×Eb). Ea+b is the inhibition ratio of drug combination, Ea and Eb are the inhibition ratio of each of drug treatment when it is administered alone. […] The animals were monitored, and when the experiments were concluded, mice were sacrificed and tumors were extracted and weighted. All the animal experiments confer to the regulations of animal's welfare and the management of experimental animal usage.
Tumor volumes were represented with average±standard error. Data analysis was done using Spss16.0, One-Way ANOVA, LSD (homogeneity of variance) or Dunnett T3 (non-homogeneity of variance). […]

WiDr = assay: Human colon cancer Widr subcutaneous model (Day 27 after treatment); type: in vivo, nude mice
Experimental: Tumor cells (i.e., MIA-PaCa-2, WiDr, H2122, colo205) were inoculated in nude mice's flank at 5×10^6 cells per mouse. The mice were grouped when the average volume of tumors reached about 100˜200 mm^3. “QW”=weekly dose. “Q3d”=dosed every third day. “BiW”=biweekly.
The bodyweight and major/minor axis of the mice were measured twice a week, and the tumor volumes were calculated using the formula: Tumor volume=1/2×major axis[…]. […] “T” represents average tumor volume of the experimental group (cm^3), and “C” represents average tumor volume of the control group (cm^3). The animals were monitored at all times. The bodyweight and major/minor axis or mice were measured twice a week.
Tumor volumes were represented with average±standard error. […] P<0.05 represents significant difference.

colon cancer, CS182, 5# = assay: Patients primary tumor tissue subcutaneous model (Day 27 after treatment); type: in vivo, nude mice; conditions: HuCTB006 10 mg/kg i.v. QW × 3w
Excerpt: as §1, §2
Tumor volumes were represented with average±standard error. Data analysis was done using Spss16.0, One-Way ANOVA, LSD (homogeneity of variance) or Dunnett T3 (non-homogeneity of variance). […] P<0.05 represents significant difference.

7402 = assay: In vitro cytotoxic sensitivity of CTB006; type: cell-based, human; conditions: 7402, Liver cancer
Huh-7 = assay: In vitro cytotoxic sensitivity of CTB006; type: cell-based, human; conditions: Huh-7, Liver cancer
ASPC-1 = assay: In vitro cytotoxic sensitivity of CTB006; type: cell-based, human; conditions: ASPC-1, Pancreatic cancer
SK-MES-1 = assay: Cytotoxicity on human tumor cell lines (ATPLite Assay Kit); type: cell-based; conditions: SK-MES-1, Lung cancer
Experimental: (§3) Eighteen human tumor cell lines were treated with 62.5, 125, 250, 500, or 1000 ng/mL HuCTB006 or different concentrations of chemotherapy drugs, which act as positive controls. […] The culture medium for SK-Hep-1, HepG2, HCT116, SW480, WiDr (1×NEAA), MIA-PaCa-2 (2.5% Horse serum) MDA-MB-231 (1 mM NaPyr, 1×MEM-NEAA, 1×MEM VITAMIN) was DMEM. The culture medium for COLO205, BXPC3 (2 mM glutamin, 10 mM HEPES), Panc2.03 (15FBS, 1 mM NaPyr, 1×MEM-NEAA, […], 10 mM HEPES), H2122, OVCAR3 (1 mM NaPyr, 10 ug/ml human insulin, 10 mM HEPES, 2.5 g/L glucose), Molt-4 (HEPES, 2.5 g/l glocose), Jurkat (HEPES, 2.5 g/l glocose) was RPMI-1640, the culture medium for SK-MES-1 was Eagle's MEM, the culture medium for 2-LMP and DY36T2 was IMEM, and the culture medium for SUM102 (5 ug/ml insulin) was F-12K. The cell viability was determined by ATPLite Assay Kit. If the IC50 value was lower than 62.5 ng/mL, the cells were treated with higher concentration of CTB006 in the second round of experiments to determine IC50 value.

COLO205 = assay: as above; type: cell-based; conditions: COLO205, Colorectal cancer
Experimental: as §3

SK-Hep-1 = assay: as above; type: cell-based; conditions: SK-Hep-1, Liver cancer
Experimental: as §3

SUM102 = assay: as above; type: cell-based; conditions: SUM102, Breast cancer
Experimental: as §3

Raji = assay: In vitro cytotoxic sensitivity of CTB006; type: cell-based, human; conditions: B cell lymphoma
HT-29 = assay: In vitro cytotoxic sensitivity of CTB006; type: cell-based, human; conditions: HT-29, Colorectal cancer
[1] = HuCTB006 0.07 mg/kg i.v. QW × 4W
[2] = HuCTB006 0.07 mg/kg i.v. QW × 4W, 0.07 mg/kg
[3] = HuCTB006 0.07 mg/kg i.v. QW × 4W, listed as HUCTB006, 0.07 mg/kg
[4] = HuCTB006 0.22 mg/kg i.v. QW × 4W
[5] = HuCTB006 0.22 mg/kg i.v. QW × 4W, 0.22 mg/kg
[6] = HuCTB006 0.22 mg/kg i.v. QW × 4W, listed as HUCTB006, 0.22 mg/kg
[7] = HuCTB006 0.67 mg/kg i.v. QW × 4W
[8] = HuCTB006 0.67 mg/kg i.v. QW × 4W, 0.67 mg/kg
[9] = HuCTB006 0.67 mg/kg i.v. QW × 4W, listed as HUCTB006, 0.67 mg/kg
[10] = HuCTB006 2 mg/kg i.v. QW × 4W, 2 mg/kg
[11] = HuCTB006 2 mg/kg i.v. QW × 4W, listed as HUCTB006, 2 mg/kg
[12] = repeated experiment, HuCTB006 0.07 mg/kg
[13] = repeated experiment, HuCTB006 0.22 mg/kg
[14] = repeated experiment, HuCTB006 0.67 mg/kg
[15] = repeated experiment, HuCTB006 2 mg/kg

Substance: HuCTB006: Monospecific humanized chimeric monoclonal antibody directed to TRAIL-R2 receptor; heavy chain SEQ ID NO: 14, light chain SEQ ID NO: 12
- inhibitory effect on the growth of CS146 (colon cancer, CS146, 2#): did not
- T/C % (Calculated using tumor volume) (WiDr; [1]): 90.16%
- Time of tumor volume changed significantly (WiDr; [1]): 7
- Tumor Volume Mean ± SEM (WiDr; [1]): 1.76 ± 0.18 cm^3
- Tumor weight Mean ± SEM (WiDr; [1]): 1.29 ± 0.18 g
- TGI (Calculated using tumor volume) (WiDr; [2]): 6.61%
- TGI (Calculated using tumor weight) (WiDr; [2]): 11.99%
- TGI (Calculated using tumor volume) (WiDr; [3]): 6.61% ^1
- TGI (Calculated using tumor weight) (WiDr; [3]): 11.99%
- T/C % (Calculated using tumor volume) (WiDr; [4]): 81.49%
- Time of tumor volume changed significantly (WiDr; [4]): 7
- Tumor Volume Mean ± SEM (WiDr; [4]): 1.54 ± 0.18 cm^3
- Tumor weight Mean ± SEM (WiDr; [4]): 1.16 ± 0.13 g
- TGI (Calculated using tumor volume) (WiDr; [5]): 18.71%
- TGI (Calculated using tumor weight) (WiDr; [5]): 21.13%
- TGI (Calculated using tumor volume) (WiDr; [6]): 18.71% ^ac
- TGI (Calculated using tumor weight) (WiDr; [6]): 21.13%
- T/C % (Calculated using tumor volume) (WiDr; [7]): 49.54%
- Time of tumor volume changed significantly (WiDr; [7]): 11
- Tumor Volume Mean ± SEM (WiDr; [7]): 0.96 ± 0.10 cm^3
- Tumor weight Mean ± SEM (WiDr; [7]): 0.68 ± 0.08 g
- TGI (Calculated using tumor volume) (WiDr; [8]): 49.42%
- TGI (Calculated using tumor weight) (WiDr; [8]): 53.48%
- TGI (Calculated using tumor volume) (WiDr; [9]): 49.42% ^abc
- TGI (Calculated using tumor weight) (WiDr; [9]): 53.48% ^a
- T/C % (Calculated using tumor volume) (WiDr; HuCTB006 2 mg/kg i.v. QW × 4W): 42.17%
- Time of tumor volume changed significantly (WiDr; HuCTB006 2 mg/kg i.v. QW × 4W): 14
- Tumor Volume Mean ± SEM (WiDr; HuCTB006 2 mg/kg i.v. QW × 4W): 0.80 ± 0.11 cm^3
- Tumor weight Mean ± SEM (WiDr; HuCTB006 2 mg/kg i.v. QW × 4W): 0.53 ± 0.08 g
- TGI (Calculated using tumor volume) (WiDr; [10]): 57.34%
- TGI (Calculated using tumor weight) (WiDr; [10]): 63.81%
- TGI (Calculated using tumor volume) (WiDr; [11]): 57.34% ^abc
- TGI (Calculated using tumor weight) (WiDr; [11]): 63.81% ^a
- TGI (Calculated using tumor volume) (WiDr; [12]): 36.21%
- TGI (Calculated using tumor weight) (WiDr; [12]): 39.94%
- TGI (Calculated using tumor volume) (WiDr; [13]): 54.98%
- TGI (Calculated using tumor weight) (WiDr; [13]): 57.56%
- TGI (Calculated using tumor volume) (WiDr; [14]): 53.73%
- TGI (Calculated using tumor weight) (WiDr; [14]): 49.85%
- TGI (Calculated using tumor volume) (WiDr; [15]): 53.77%
- TGI (Calculated using tumor weight) (WiDr; [15]): 53.75%
- T/C % (Calculated using tumor volumes) (colon cancer, CS182, 5#): 102.39%
- Time of tumor volume changed significantly (colon cancer, CS182, 5#): 3
- Tumor Volume Mean ± SEM (colon cancer, CS182, 5#): 0.95 ± 0.06 cm^3
- Tumor weight Mean ± SEM (colon cancer, CS182, 5#): 0.64 ± 0.06 g
- TGI (Calculated using tumor volumes) (colon cancer, CS182, 5#; 10 mg/kg): −21.15%
- TGI (Calculated using tumor weight) (colon cancer, CS182, 5#; 10 mg/kg): −9.22%
- TGI (Calculated using tumor volumes) (colon cancer, CS182, 5#; listed as HUCTB006, 10 mg/kg): −21.15%
- TGI (Calculated using tumor weight) (colon cancer, CS182, 5#; listed as HUCTB006, 10 mg/kg): −9.22%
- In vitro cytotoxic sensitivity of CTB006 7402: Non-responder
- In vitro cytotoxic sensitivity of CTB006 (Huh-7): Non-responder
- In vitro cytotoxic sensitivity of CTB006 (ASPC-1): Non-responder
- In vitro cytotoxic sensitivity of CTB006 (SK-MES-1): Responder
- In vitro cytotoxic sensitivity of CTB006 (COLO205): Responder
- In vitro cytotoxic sensitivity of CTB006 (SK-Hep-1): Partial-responder
- In vitro cytotoxic sensitivity of CTB006 (SUM102): Partial-responder
- In vitro cytotoxic sensitivity of CTB006 (Raji): Non-responder
- In vitro cytotoxic sensitivity of CTB006 (HT-29): Non-responder
